{"source": "patent US11642392B2", "about": "“Therapeutic agent of uremia containing alarin as the main ingredient” (JU TIDE CO., LTD., priority 2017, dated 2023)", "key": {"[1]": {"test_system": "Cisplatin-induced uremia in the Sprague-Dawley rat model", "details": "single dose of 10 μg/1 mL/head and 20 μg/1 mL/head IV, vs control group of excipient", "procedure": "(§1) The intravenous administration was done by fixing an animal into a correction frame, and slowly injecting at a rate of within 1 mL/min through the micro vein using a syringe equipped with 26 gauges needle. The intraperitoneal administration was performed by fixing the animal by a transdermal skin fixation method and intraperitoneally injecting using a syringe equipped with 26 gauges needle.\nSerum obtained from the centrifugation was tested for blood urea nitrogen (BUN) and […] (CRE) using a blood biochemical analyzer (7180 Hitachi, Japan)."}, "[2]": {"test_system": "Cisplatin-induced uremia in the Sprague-Dawley rat model", "procedure": "as §1\nFinally, animals were inhaled with ether on an necropsy day to anesthetize and euthanize, and kidneys were extracted and fixed in a 10% neutral buffered formalin solution, and the fixed tissues were cut, dehydrated, paraffin embedded and hematoxylin & eosin stained to make a specimens for histopathological examination after these histological treatment. And then, the obtained specimen is subjected to speculum using an optical microscope (Olympus BX53, Japan)."}}, "data": [{"substance": "alarin (human) trifluoroacetate salt [test substance]", "values": [{"measurement": "blood biochemical level", "setting": "[1]", "result": "tendency to improve"}, {"measurement": "histopathological examination results, lesion level", "setting": "[2]; 10 and 20 μg/1 mL/head IV single dose, across doses", "result": "dose-related change trend and significant changes in lesion level"}, {"measurement": "level of lesion (histopathological examination of kidney)", "setting": "[2]; high dose group (20 μg/1 mL/head IV, single dose), necropsy Day 7, H&E, vs control group", "result": "significantly lower"}]}]}
